Test results: ChEMBL document CHEMBL5523727, “Discovery of KT-413, a Targeted Protein Degrader of IRAK4 and IMiD Substrates Targeting MYD88 Mutant Diffuse Large B-Cell Lymphoma” (J Med Chem, 2024)
Calls of active or inactive are those of the source. The rule behind the calls is not given here.

Columns and labels:
[1] = Oral bioavailability in mouse at 10 mg/kg by LC-MS/MS analysis; type: ADME, organism-based; conditions: in vivo
[2] = Metabolic stability in rat hepatocyte assessed as intrinsic clearance measured per million cells; type: ADME, cell-based; conditions: hepatocytes, read-out: CLH
[3] = AUC in rat at 10 mg/kg, po by LC-MS/MS analysis; type: ADME, organism-based; conditions: in vivo, read-out: AUC
[4] = target: T1, Protein cereblon/Zinc finger protein Aiolos (Homo sapiens, UniProt Q96SW2+Q9UKT9); assay: PROTAC activity at CRBN/Aiolos in human OCI-Ly10 cells assessed as induction of Aiolos degradation measured after 24 hrs by MSD assay; type: cell-based
Target sequence in this assay (Q96SW2 whole entry): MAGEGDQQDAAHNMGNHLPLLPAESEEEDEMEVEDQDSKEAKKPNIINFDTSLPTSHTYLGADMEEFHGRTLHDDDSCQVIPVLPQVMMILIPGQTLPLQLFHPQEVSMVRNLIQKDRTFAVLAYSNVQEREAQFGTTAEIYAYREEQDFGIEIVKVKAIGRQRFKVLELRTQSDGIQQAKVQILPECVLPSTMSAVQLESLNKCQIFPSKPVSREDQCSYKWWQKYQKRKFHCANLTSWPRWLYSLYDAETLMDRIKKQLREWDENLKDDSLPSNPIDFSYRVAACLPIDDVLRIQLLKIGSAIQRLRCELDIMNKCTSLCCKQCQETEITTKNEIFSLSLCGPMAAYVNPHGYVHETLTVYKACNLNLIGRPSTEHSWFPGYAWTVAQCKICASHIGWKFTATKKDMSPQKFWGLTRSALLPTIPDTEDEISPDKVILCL
Target sequence in this assay (Q9UKT9 whole entry): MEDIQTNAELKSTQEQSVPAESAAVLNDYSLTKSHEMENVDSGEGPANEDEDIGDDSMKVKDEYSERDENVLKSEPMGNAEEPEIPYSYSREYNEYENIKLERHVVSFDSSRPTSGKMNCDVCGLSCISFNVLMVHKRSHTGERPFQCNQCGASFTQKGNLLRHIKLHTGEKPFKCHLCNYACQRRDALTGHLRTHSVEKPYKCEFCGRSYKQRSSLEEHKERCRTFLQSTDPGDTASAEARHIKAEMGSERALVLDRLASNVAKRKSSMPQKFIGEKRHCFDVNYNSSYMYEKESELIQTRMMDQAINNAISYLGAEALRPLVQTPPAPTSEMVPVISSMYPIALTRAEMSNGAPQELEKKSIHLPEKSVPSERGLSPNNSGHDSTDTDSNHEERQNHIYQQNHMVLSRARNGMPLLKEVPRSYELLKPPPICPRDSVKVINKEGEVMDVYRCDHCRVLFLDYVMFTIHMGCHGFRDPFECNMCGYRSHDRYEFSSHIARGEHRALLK

[5] = Volume of distribution at steady state in rat at 2 mg/kg, iv by LC-MS/MS analysis; type: ADME, organism-based; conditions: in vivo, read-out: Vdss
OCI-Ly10 [6] = assay: Antitumor activity against human OCI-LY10 cells xenografted in CB-17.SCID mouse model assessed as tumor growth regression at 10 to 30 mg/kg, po QD dosed measured after 38 days relative to control; type: functional; conditions: dose 10-30 mg/kg, time 38 day
[7] = AUC in mouse at 10 mg/kg, po by LC-MS/MS analysis; type: ADME, organism-based; conditions: in vivo
[8] = Oral bioavailability in dog at 2.1 mg/kg by LC-MS/MS analysis; type: ADME, organism-based, Canis lupus familiaris; conditions: in vivo
[9] = Metabolic stability in Non human primate liver microsomes assessed as intrinsic clearance; type: ADME, Microsome; conditions: primates, read-out: CLH
[10] = Metabolic stability in human hepatocyte assessed as intrinsic clearance measured per million cells; type: ADME, cell-based; conditions: hepatocytes, read-out: CLH
[11] = Oral bioavailability in Non human primate at 2.1 mg/kg by LC-MS/MS analysis; type: ADME, organism-based; conditions: primates, in vivo
[12] = AUC in Non human primate at 2.1 mg/kg, po by LC-MS/MS analysis; type: ADME, organism-based; conditions: primates, in vivo
[13] = Volume of distribution at steady state in dog at 0.2 mg/kg, iv by LC-MS/MS analysis; type: ADME, organism-based, Canis lupus familiaris; conditions: in vivo, read-out: Vdss
PBMC [14] = assay: Downregulation of IRAK4 expression in human PBMC cells at 100 nM measured after 24 hrs by TMT based quantitative proteomics analysis; type: functional, cell-based
[15] = Half life in mouse at 2 mg/kg, iv by LC-MS/MS analysis; type: ADME, organism-based; conditions: in vivo
[16] = Clearance in mouse at 2 mg/kg, iv by LC-MS/MS analysis; type: ADME, organism-based; conditions: in vivo
[17] = target: T2, Protein cereblon/Interleukin-1 receptor-associated kinase 4 (Homo sapiens, UniProt Q9NWZ3+Q96SW2); assay: PROTAC activity at CRBN/IRAK4 in human OCI-Ly10 cells assessed as induction of IRAK4 degradation measured after 24 hrs by MSD assay; type: cell-based
Target sequence in this assay (Q9NWZ3 whole entry): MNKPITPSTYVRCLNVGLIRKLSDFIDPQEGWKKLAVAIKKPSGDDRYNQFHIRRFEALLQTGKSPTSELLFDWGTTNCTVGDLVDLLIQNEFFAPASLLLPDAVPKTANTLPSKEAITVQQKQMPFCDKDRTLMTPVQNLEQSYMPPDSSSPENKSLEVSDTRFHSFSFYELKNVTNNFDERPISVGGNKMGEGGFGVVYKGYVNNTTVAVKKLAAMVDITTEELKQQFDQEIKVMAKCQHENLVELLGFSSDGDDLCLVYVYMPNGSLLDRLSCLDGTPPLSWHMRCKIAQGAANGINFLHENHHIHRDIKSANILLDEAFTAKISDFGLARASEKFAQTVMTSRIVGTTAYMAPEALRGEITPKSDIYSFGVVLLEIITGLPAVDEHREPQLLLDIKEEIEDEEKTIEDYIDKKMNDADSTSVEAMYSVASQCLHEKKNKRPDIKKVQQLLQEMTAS
Target sequence in this assay (Q96SW2 whole entry): as the sequence (Q96SW2 whole entry) above

OCI-Ly10 [18] = assay: […] of IKZF3 expression in human OCI-Ly10 cells at 60 nM measured after 2 to 8 hrs by TMT based quantitative proteomics analysis; type: functional, cell-based; conditions: time 2-8 hrs
PBMC [19] = assay: Effect on ZFP276 expression in human PBMC cells at 100 nM measured after 24 hrs by TMT based quantitative proteomics analysis; type: functional, cell-based
[20] = Volume of distribution at steady state in Non human primate at 0.2 mg/kg, iv by LC-MS/MS analysis; type: ADME, organism-based; conditions: primates, in vivo, read-out: Vdss
[21] = target: T1, Protein cereblon/Zinc finger protein Aiolos; assay: PROTAC activity at CRBN/Aiolos in human OCI-Ly10 cells assessed as maximum degradation at 41 nM measured within 2 hrs; type: cell-based
Target sequence in this assay (Q96SW2 whole entry, looked up): as the sequence (Q96SW2 whole entry) above
Target sequence in this assay (Q9UKT9 whole entry, looked up): as the sequence (Q9UKT9 whole entry) above

OCI-Ly10 [22] = assay: Antiproliferative activity against human OCI-Ly10 cells measured after 4 days by CellTiter-Glo Luminescent Cell Viability Assay; type: functional, cell-based; conditions: Homo sapiens, OCI-Ly10, 96 h
PBMC [23] = assay: Effect on GSPT1 expression in human PBMC at 100 nM measured after 24 hrs by TMT based quantitative proteomics analysis; type: functional, cell-based
OCI-Ly10 [24] = assay: Downregulation of […] expression in human OCI-Ly10 cells at 60 nM measured after 2 to 8 hrs by TMT based quantitative proteomics analysis; type: functional, cell-based; conditions: time 2-8 hrs
[25] = Clearance in Non human primate at 0.2 mg/kg, iv by LC-MS/MS analysis; type: ADME, organism-based; conditions: primates, in vivo
Cereblon/Ikaros [26] = target: T3, Cereblon/Ikaros (Homo sapiens, UniProt Q96SW2+Q13422); assay: PROTAC activity at CRBN/Ikaros in human OCI-Ly10 cells assessed as induction of Ikaros degradation measured after 24 hrs by MSD assay; type: cell-based
OCI-Ly10 [27] = assay: Antitumor activity against human OCI-LY10 cells xenografted in CB-17.SCID mouse model assessed as tumor growth regression at 3 mg/kg, po QD dosed measured after 38 days; type: functional, organism-based; conditions: time 38.0 day
OCI-Ly10 [28] = assay: […] of […] expression in human OCI-Ly10 cells at 60 nM measured after 2 to 8 hrs by TMT based quantitative proteomics analysis; type: functional, cell-based; conditions: time 2-8 hrs
[29] = Oral bioavailability in rat at 10 mg/kg by LC-MS/MS analysis; type: ADME, organism-based; conditions: in vivo
[30] = Volume of distribution at steady state in mouse at 2 mg/kg, iv by LC-MS/MS analysis; type: ADME, organism-based; conditions: in vivo, read-out: Vdss
[31] = target: T2, Protein cereblon/Interleukin-1 receptor-associated kinase 4; assay: PROTAC activity at CRBN/IRAK4 in human OCI-Ly10 cells assessed as maximum degradation at 41 nM measured after 24 hrs; type: cell-based
Target sequence in this assay (Q96SW2 whole entry, looked up): as the sequence (Q96SW2 whole entry) above
Target sequence in this assay (Q9NWZ3 whole entry, looked up): as the sequence (Q9NWZ3 whole entry) above

PBMC [32] = assay: Effect on ZFP91 expression in human PBMC cells at 100 nM measured after 24 hrs by TMT based quantitative proteomics analysis; type: functional, cell-based
[33] = Clearance in rat at 2 mg/kg, iv by LC-MS/MS analysis; type: ADME, organism-based; conditions: in vivo
[34] = Clearance in dog at 0.2 mg/kg, iv by LC-MS/MS analysis; type: ADME, organism-based, Canis lupus familiaris; conditions: in vivo
[35] = Half life in dog at 0.2 mg/kg, iv by LC-MS/MS analysis; type: ADME, organism-based, Canis lupus familiaris; conditions: in vivo
[36] = Metabolic stability in dog hepatocyte assessed as intrinsic clearance measured per million cells; type: ADME, cell-based, Canis lupus familiaris; conditions: hepatocytes, read-out: CLH
PBMC [37] = assay: Effect on WIZ expression in human PBMC cells at 100 nM measured after 24 hrs by TMT based quantitative proteomics analysis; type: functional, cell-based
[38] = Half life in rat at 2 mg/kg, iv by LC-MS/MS analysis; type: ADME, organism-based; conditions: in vivo
OCI-Ly10 [39] = assay: Effect on GSPT1 expression in human OCI-Ly10 at 60 nM measured after 2 to 8 hrs by TMT based quantitative proteomics analysis; type: functional, cell-based; conditions: time 2-8 hrs
[40] = Passive permeability of the compound in wild type MDCK cells across apical to basolateral side at 1 uM measured for 120 mins by LC-MS/MS analysis; type: ADME, cell-based, Canis lupus familiaris; conditions: dog, read-out: permeability
PBMC [41] = assay: Downregulation of LPXN expression in human PBMC cells at 100 nM measured after 24 hrs by TMT based quantitative proteomics analysis; type: functional, cell-based
PBMC [42] = assay: Effect on IKZF3 expression in human PBMC cells at 100 nM measured after 24 hrs by TMT based quantitative proteomics analysis; type: functional, cell-based
[43] = Metabolic stability in mouse liver microsomes assessed as intrinsic clearance; type: ADME, Microsome; conditions: read-out: CLH
[44] = AUC in dog at 2.1 mg/kg, po by LC-MS/MS analysis; type: ADME, organism-based, Canis lupus familiaris; conditions: in vivo
[45] = Metabolic stability in dog liver microsomes assessed as intrinsic clearance; type: ADME, Canis lupus familiaris, Microsome; conditions: read-out: CLH
[46] = Metabolic stability in Non human primate hepatocyte assessed as intrinsic clearance measured per million cells; type: ADME, cell-based; conditions: primates, hepatocytes; read-out: CLH
OCI-Ly10 [47] = assay: Antitumor activity in human patient derived OCI-LY10 cells xenografted in NPG mouse bearing MYD88-mutated DLBCL tumor containing a CD79 co-mutation model assessed as tumor growth regression at 20 mg/kg, po QD dosed measured after 3 to 5 days relative to control; type: functional; conditions: time 3-5 day
PBMC [48] = assay: Downregulation of FGD2 expression in human PBMC cells at 100 nM measured after 24 hrs by TMT based quantitative proteomics analysis; type: functional, cell-based
OCI-Ly10 [49] = assay: Downregulation of FGD2 expression in human OCI-Ly10 cells at 60 nM measured after 2 to 8 hrs by TMT based quantitative proteomics analysis; type: functional, cell-based; conditions: time 2-8 hrs
Cereblon/Ikaros [50] = target: T3, Cereblon/Ikaros; assay: PROTAC activity at CRBN/Ikaros in human OCI-Ly10 cells assessed as maximum degradation at 41 nM measured within 2 hrs; type: cell-based
OCI-Ly10 [51] = assay: Downregulation of LPXN expression in human OCI-Ly10 cells at 60 nM measured after 2 to 8 hrs by TMT based quantitative proteomics analysis; type: functional, cell-based; conditions: time 2-8 hrs
[52] = Half life in Non human primate at 0.2 mg/kg, iv by LC-MS/MS analysis; type: ADME, organism-based; conditions: primates, in vivo
PBMC [53] = assay: Effect on IKZF1 expression in human PBMC cells at 100 nM measured after 24 hrs by TMT based quantitative proteomics analysis; type: functional, cell-based

T3 sequence (Q96SW2 whole entry): as the sequence (Q96SW2 whole entry) above
T3 sequence (Q13422 whole entry): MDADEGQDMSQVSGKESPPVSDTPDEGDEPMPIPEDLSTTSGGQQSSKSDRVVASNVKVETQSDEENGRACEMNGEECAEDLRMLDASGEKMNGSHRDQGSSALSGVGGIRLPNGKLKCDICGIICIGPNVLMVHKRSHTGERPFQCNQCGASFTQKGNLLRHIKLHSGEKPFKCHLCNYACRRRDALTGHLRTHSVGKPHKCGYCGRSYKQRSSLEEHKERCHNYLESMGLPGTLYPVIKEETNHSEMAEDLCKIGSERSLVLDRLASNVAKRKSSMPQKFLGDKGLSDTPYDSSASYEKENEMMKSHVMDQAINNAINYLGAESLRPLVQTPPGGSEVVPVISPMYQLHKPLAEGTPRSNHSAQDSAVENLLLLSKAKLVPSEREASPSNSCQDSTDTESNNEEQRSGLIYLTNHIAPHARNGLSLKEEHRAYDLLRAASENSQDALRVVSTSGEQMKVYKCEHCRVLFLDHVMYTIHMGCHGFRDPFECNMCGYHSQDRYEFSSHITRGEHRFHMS

Compound: CC(C)(O)c1cc2nc([C@H]3CC[C@H](CN4CC5(CC(CCNc6cccc7c6C(=O)N(C6CCC(=O)NC6=O)C7=O)C5)C4)CC3)sc2cc1NC(=O)c1cccc(C(F)(F)F)n1 (stereo partly drawn) [ZOMIRADOMIDE]
- bioavailability [1]: 19%
- hepatocyte CLint [2]: 0.8 µL/min/1e6 cells
- AUC [3]: 2.7 µM·h
- DC50 [4]: 1 nM
- Vd [5]: 15 L/kg
- Activity (OCI-Ly10 [6]): 100%
- AUC [7]: 2.8 µM·h
- bioavailability [8]: 21%
- microsomal CLint [9]: 8.6 µL/min/mg
- hepatocyte CLint [10]: 3.5 µL/min/1e6 cells
- bioavailability [11]: 42%
- AUC [12]: 3.6 µM·h
- Vd [13]: 29 L/kg
- Activity (PBMC [14]): Active
- half-life [15]: 8.6 h
- clearance [16]: 11 mL/min/kg
- DC50 [17]: 6 nM
- Activity (OCI-Ly10 [18]): Active
- Activity (PBMC [19]): Active
- Vd [20]: 5.8 L/kg
- Activity [21]: Active
- IC50 (OCI-Ly10 [22]): 11 nM
- Activity (PBMC [23]): inactive
- Activity (OCI-Ly10 [24]): Active
- clearance [25]: 4.5 mL/min/kg
- DC50 (Cereblon/Ikaros [26]): 1 nM
- Activity (OCI-Ly10 [27]): Active
- Activity (OCI-Ly10 [28]): Active
- bioavailability [29]: 15%
- Vd [30]: 7.5 L/kg
- Activity [31]: Active
- Activity (PBMC [32]): Active
- clearance [33]: 9.1 mL/min/kg
- clearance [34]: 14 mL/min/kg
- half-life [35]: 28 h
- hepatocyte CLint [36]: 2.3 µL/min/1e6 cells
- Activity (PBMC [37]): Active
- half-life [38]: 17 h
- Activity (OCI-Ly10 [39]): inactive
- Papp A→B at 2 h, 1 µM [40]: 1.3 ×10⁻⁶ cm/s
- Activity (PBMC [41]): Active
- Activity (PBMC [42]): Active
- microsomal CLint [43]: 4 µL/min/mg
- AUC [44]: 0.46 µM·h
- microsomal CLint [45]: 4.2 µL/min/mg
- hepatocyte CLint [46]: 2.7 µL/min/1e6 cells
- Activity (OCI-Ly10 [47]): 100%
- Activity (PBMC [48]): Active
- Activity (OCI-Ly10 [49]): Active
- Activity (Cereblon/Ikaros [50]): Active
- Activity (OCI-Ly10 [51]): Active
- half-life [52]: 16.4 h
- Activity (PBMC [53]): Active
